Measured values published in patent US12371454B2, “Cyclic peptide compound having Kras inhibitory action” (priority 2019, dated 2025).
Starred links: 1 amine or outer side, 2 acyl side, 3 side chain; linkers in the order of their positions; H or OH if unused. Positions of bridges follow the written chain, without caps; N, C: chain ends. Non-standard residues stand in square brackets, D forms with d. Residues, ends and D or L forms follow the SMILES beside them. *: point of attachment. hPhe(3-Cl-4-CF3) = N[C@@H](CCc1ccc(C(F)(F)F)c(Cl)c1)C(=O)O; X12 = CN([C@@H](Cc1ccc(C(F)(F)F)nc1)C(=O)[*:2])[*:1]; NMePhe(4-CF3) = CN[C@@H](Cc1ccc(C(F)(F)F)cc1)C(=O)O; X82 = O=C([C@H](Cc1cccc(OC(F)(F)F)c1)N[*:1])[*:2]; hPhe(4-CF3) = N[C@@H](CCc1ccc(C(F)(F)F)cc1)C(=O)O; NMeAla(4-thiazolyl) = CN[C@@H](Cc1cscn1)C(=O)O; X17 = Cc1cncc(C[C@@H](C(=O)[*:2])N(C)[*:1])c1; NMePhe(4-Cl) = CN[C@@H](Cc1ccc(Cl)cc1)C(=O)O; NMePhe(3-F) = CN[C@@H](Cc1cccc(F)c1)C(=O)O; Phe(3-Cl) = N[C@@H](Cc1cccc(Cl)c1)C(=O)O; X22 = O=C([C@@H]1Cc2ccccc2N1[*:1])[*:2]; NMeGly(cPent) = CN[C@H](C(=O)O)C1CCCC1; Phe(3-I) = N[C@@H](Cc1cccc(I)c1)C(=O)O; Phe(3-Me) = Cc1cccc(C[C@H](N)C(=O)O)c1; NMeCha = CN[C@@H](CC1CCCCC1)C(=O)O; NMeChg = CN[C@H](C(=O)O)C1CCCCC1; NMeF = CN[C@@H](Cc1ccccc1)C(=O)O; N(CH2CH2)2CF2 = FC1(F)CCN(*)CC1; NMeD = CN[C@@H](CC(=O)O)C(=O)O; NMeL = CN[C@@H](CC(C)C)C(=O)O; NMeV = CN[C@H](C(=O)O)C(C)C; d(β3hA) = C[C@@H](N)CC(=O)O; NMeA = CN[C@@H](C)C(=O)O; NMeAib = CNC(C)(C)C(=O)O; Nle = CCCC[C@H](N)C(=O)O; Piperidide = C1CCN(*)CC1; Pyrrolidide = C1CCN(*)C1; dNMeA = CN[C@H](C)C(=O)O; Ac5c = NC1(C(=O)O)CCCC1; Aze = O=C(O)[C@@H]1CCN1; Nva = CCC[C@H](N)C(=O)O; CH2CMe2OH = CC(C)(O)C*; Ac3c = NC1(C(=O)O)CC1; X47 = Fc1cncc(C*)c1; NEtG = CCNCC(=O)O; Sar = CNCC(=O)O

What follows are compounds tested against T1, Kras and SOS1 (biotin-tagged human Kras loaded with GDP, His-tagged human SOS1) (Homo sapiens, UniProt P01116, G12D) (assay: Protein-protein interaction inhibition between Kras and SOS1 (KrasGl2D-SOS PPI) using AlphaScreen). Conditions: AlphaScreen; biotin-tagged human Kras loaded with GDP, His-tagged human SOS1; read-out: KRAS G12D-SOS PPI IC50.
T1 construct: made in house; host or cells: E. coli (stated for Kras only)
Format: binding
In short: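 Kras was produced in E. coli, purified, then loaded with GDP. It was paired via streptavidin acceptor beads with His-SOS1 held on nickel donor beads, and proximity signal at 520-620 nm was read after 680 nm illumination.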

T1 sequence (P01116 1-188 isoform P01116-2 G12D): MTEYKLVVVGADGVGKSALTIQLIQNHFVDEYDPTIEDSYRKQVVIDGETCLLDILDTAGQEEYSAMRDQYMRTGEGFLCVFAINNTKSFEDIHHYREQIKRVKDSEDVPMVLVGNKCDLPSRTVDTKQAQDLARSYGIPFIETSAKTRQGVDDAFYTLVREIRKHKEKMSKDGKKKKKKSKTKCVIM

| Compound | IC50 [nM] |
| --- | --- |
| CC[C@H](C)[C@@H]1NC(=O)[C@H](C)N(C)C(=O)C[C@@H](C(=O)N2CCCC2)NC(=O)[C@H](C(C)C)N(C)C(=O)[C@H](Cc2ccccc2)N(C)C(=O)[C@H](Cc2ccccc2)NC(=O)[C@H](Cc2cccc(C)c2)NC(=O)CN(C)C(=O)[C@H](Cc2ccc(Cl)cc2)N(C)C(=O)CN(C)C(=O)CN(C)C1=O [Compound 467] ([NMeA]I[Sar][Sar][NMePhe(4-Cl)][Sar][Phe(3-Me)]F[NMeF][NMeV]D-Pyrrolidide; lactam N-11) | 200 |
| CC[C@H](C)[C@@H]1NC(=O)[C@H](CC(C)C)N(C)C(=O)C[C@@H](C(=O)N2CCCCC2)N(C)C(=O)[C@H](C(C)C)N(C)C(=O)C2(CC2)NC(=O)[C@@H]2CCCN2C(=O)[C@H](CCc2ccc(C(F)(F)F)c(Cl)c2)NC(=O)CN(C)C(=O)[C@H](CC2CCCCC2)N(C)C(=O)CN(C)C(=O)CN(C)C1=O [Compound 468] ([NMeL]I[Sar][Sar][NMeCha][Sar][hPhe(3-Cl-4-CF3)]P[Ac3c][NMeV][NMeD]-Piperidide; lactam N-11) | 2.5 |
| CC[C@H](C)[C@@H]1NC(=O)[C@H](C)N(C)C(=O)C[C@@H](C(=O)N2CCCCC2)NC(=O)[C@H](CC(C)C)N(C)C(=O)[C@H](Cc2ccccc2)N(C)C(=O)[C@H](CC(C)C)NC(=O)[C@H](Cc2cccc(OC(F)(F)F)c2)NC(=O)CN(C)C(=O)[C@H](Cc2ccc(Cl)cc2)N(C)C(=O)CN(C)C(=O)CN(C)C1=O [Compound 473] ([NMeA]I[Sar][Sar][NMePhe(4-Cl)][Sar][X82]L[NMeF][NMeL]D-Piperidide; lactam N-11) | 410 |
| CC[C@H](C)[C@@H]1NC(=O)[C@H](CC(C)C)N(C)C(=O)C[C@@H](C(=O)N2CCCCC2)N(C)C(=O)[C@H](C2CCCCC2)N(C)C(=O)C2(CCCC2)NC(=O)[C@H](Cc2cncc(C)c2)N(C)C(=O)[C@H](CCc2ccc(C(F)(F)F)c(Cl)c2)NC(=O)CN(C)C(=O)[C@H](CC2CCCCC2)N(C)C(=O)[C@@H]2CCN2C(=O)CN(C)C1=O [Compound 477] ([NMeL]I[Sar][Aze][NMeCha][Sar][hPhe(3-Cl-4-CF3)][X17][Ac5c][NMeChg][NMeD]-Piperidide; lactam N-11) | 4.3 |
| CC[C@H](C)[C@@H]1NC(=O)[C@H](CC(C)C)N(C)C(=O)C[C@@H](C(=O)N2CCCCC2)N(C)C(=O)[C@H](C2CCCCC2)N(C)C(=O)C2(CCCC2)NC(=O)[C@H](Cc2ccc(C(F)(F)F)nc2)N(C)C(=O)[C@H](CCc2ccc(C(F)(F)F)c(Cl)c2)NC(=O)CN(C)C(=O)[C@H](CC2CCCCC2)N(C)C(=O)[C@@H]2CCN2C(=O)[C@H](C)N(C)C1=O [Compound 479] ([NMeL]I[NMeA][Aze][NMeCha][Sar][hPhe(3-Cl-4-CF3)][X12][Ac5c][NMeChg][NMeD]-Piperidide; lactam N-11) | 300 |
| CC[C@H](C)[C@@H]1NC(=O)[C@H](C)N(C)C(=O)C[C@@H](C)NC(=O)[C@H](C2CCCC2)N(C)C(=O)C2(CCCC2)NC(=O)[C@@H]2CCCN2C(=O)[C@H](CCc2ccc(C(F)(F)F)c(Cl)c2)NC(=O)[C@@H](C)N(C)C(=O)[C@H](Cc2ccccc2)N(C)C(=O)CN(C)C(=O)CN(C)C1=O [Compound 482] (cyclo([Ac5c][NMeGly(cPent)][d(β3hA)][NMeA]I[Sar][Sar][NMeF][dNMeA][hPhe(3-Cl-4-CF3)]P)) | 170 |
| CCCC[C@@H]1NC(=O)[C@H](Cc2cccc(I)c2)NC(=O)CN(C)C(=O)[C@H](Cc2ccc(Cl)cc2)N(C)C(=O)CN(C)C(=O)CN(C)C(=O)[C@H]([C@@H](C)CC)NC(=O)[C@H](CC(C)C)N(C)C(=O)C[C@@H](C(=O)N2CCCCC2)N(C)C(=O)[C@H](CC(C)C)NC(=O)[C@H](Cc2cccc(F)c2)N(C)C1=O [Compound 483] ([NMeL]I[Sar][Sar][NMePhe(4-Cl)][Sar][Phe(3-I)][Nle][NMePhe(3-F)]L[NMeD]-Piperidide; lactam N-11) | 17 |
| CC[C@H](C)[C@@H]1NC(=O)[C@H](CC(C)C)N(C)C(=O)C[C@@H](C(=O)N2CCCCC2)N(C)C(=O)[C@H](C(C)C)N(C)C(=O)[C@@H](C)NC(=O)[C@H](CC(=O)N2CCC(F)(F)CC2)N(C)C(=O)[C@H](CCc2ccc(C(F)(F)F)c(Cl)c2)NC(=O)CN(C)C(=O)[C@H](CC2CCCCC2)N(C)C(=O)CN(C)C(=O)CN(C)C1=O [Compound 493] ([NMeL]I[Sar][Sar][NMeCha][Sar][hPhe(3-Cl-4-CF3)][NMeD](N(CH2CH2)2CF2)[dA][NMeV][NMeD]-Piperidide; lactam N-11) | 300 |
| CCC[C@@H]1NC(=O)[C@H](CC(C)C)N(C)C(=O)C[C@@H](C(=O)N2CCCCC2)N(C)C(=O)[C@H](C2CCCCC2)N(C)C(=O)C2(CCCC2)NC(=O)[C@@H]2CCCN2C(=O)[C@H](CCc2ccc(C(F)(F)F)c(Cl)c2)NC(=O)CN(C)C(=O)[C@H](CC2CCCCC2)N(C)C(=O)CN(C)C(=O)CN(C)C1=O [Compound 495] ([NMeL][Nva][Sar][Sar][NMeCha][Sar][hPhe(3-Cl-4-CF3)]P[Ac5c][NMeChg][NMeD]-Piperidide; lactam N-11) | 3.2 |
| CCCC[C@@H]1NC(=O)[C@H](Cc2cccc(I)c2)NC(=O)CN(C)C(=O)[C@H](Cc2ccc(Cl)cc2)N(C)C(=O)CN(C)C(=O)CN(C)C(=O)[C@H]([C@@H](C)CC)NC(=O)[C@H](CC(C)C)N(C)C(=O)C[C@@H](C(=O)N2CCCCC2)N(C)C(=O)[C@H](CC(C)C)NC(=O)[C@H](Cc2ccc(C(F)(F)F)cc2)N(C)C1=O [Compound 498] ([NMeL]I[Sar][Sar][NMePhe(4-Cl)][Sar][Phe(3-I)][Nle][NMePhe(4-CF3)]L[NMeD]-Piperidide; lactam N-11) | 49 |
| CC[C@H](C)[C@@H]1NC(=O)[C@H](C)N(C)C(=O)C[C@@H](C(=O)N2CCCC2)NC(=O)[C@H](CC(C)C)NC(=O)[C@H](Cc2ccccc2)N(C)C(=O)[C@H](CC(C)C)NC(=O)[C@H](Cc2cccc(Cl)c2)NC(=O)CN(C)C(=O)[C@H](Cc2ccc(Cl)cc2)N(C)C(=O)CN(C)C(=O)CN(C)C1=O [Compound 499] ([NMeA]I[Sar][Sar][NMePhe(4-Cl)][Sar][Phe(3-Cl)]L[NMeF]LD-Pyrrolidide; lactam N-11) | 85 |
| CC[C@H](C)[C@@H]1NC(=O)[C@H](CC(C)C)N(C)C(=O)C[C@@H](C(=O)N2CCCCC2)N(C)C(=O)[C@H](C2CCCCC2)N(C)C(=O)C2(CCCC2)NC(=O)[C@H](Cc2cscn2)N(C)C(=O)[C@H](CCc2ccc(C(F)(F)F)c(Cl)c2)NC(=O)CN(C)C(=O)[C@H](CC2CCCCC2)N(C)C(=O)CN(C)C(=O)CN(C)C1=O [Compound 500] ([NMeL]I[Sar][Sar][NMeCha][Sar][hPhe(3-Cl-4-CF3)][NMeAla(4-thiazolyl)][Ac5c][NMeChg][NMeD]-Piperidide; lactam N-11) | 4.8 |
| CC[C@H](C)[C@@H]1NC(=O)[C@H](C)N(C)C(=O)C[C@@H](C(=O)N2CCCC2)NC(=O)[C@H](CC(C)C)N(C)C(=O)[C@H](Cc2ccccc2)N(C)C(=O)[C@H](COCC(C)(C)O)NC(=O)[C@H](CCc2ccc(C(F)(F)F)cc2)NC(=O)CN(C)C(=O)[C@H](Cc2ccc(Cl)cc2)N(C)C(=O)CN(C)C(=O)CN(C)C1=O [Compound 502] ([NMeA]I[Sar][Sar][NMePhe(4-Cl)][Sar][hPhe(4-CF3)]S(CH2CMe2OH)[NMeF][NMeL]D-Pyrrolidide; lactam N-11) | 47 |
| CC[C@H](C)[C@@H]1NC(=O)[C@H](CC(C)C)N(C)C(=O)C[C@@H](C)NC(=O)[C@H](C(C)C)N(C)C(=O)C2(CCCC2)NC(=O)[C@@H]2CCCN2C(=O)[C@H](CCc2ccc(C(F)(F)F)c(Cl)c2)NC(=O)CN(C)C(=O)[C@H](CC2CCCCC2)N(C)C(=O)CN(CC)C(=O)CN(C)C1=O [Compound 504] (cyclo([Ac5c][NMeV][d(β3hA)][NMeL]I[Sar][NEtG][NMeCha][Sar][hPhe(3-Cl-4-CF3)]P)) | 53 |
| CC[C@H](C)[C@@H]1NC(=O)[C@H](C)N(C)C(=O)C[C@@H](C(=O)N2CCCCC2)N(C)C(=O)[C@H](C(C)C)N(C)C(=O)C(C)(C)N(C)C(=O)[C@@H]2CCCN2C(=O)[C@H](CCc2ccc(C(F)(F)F)c(Cl)c2)NC(=O)CN(C)C(=O)[C@H](CC2CCCCC2)N(C)C(=O)CN(C)C(=O)CN(C)C1=O [Compound 507] ([NMeA]I[Sar][Sar][NMeCha][Sar][hPhe(3-Cl-4-CF3)]P[NMeAib][NMeV][NMeD]-Piperidide; lactam N-11) | 0.48 |
| CC[C@H](C)[C@@H]1NC(=O)[C@H](CC(C)C)N(C)C(=O)C[C@@H](C(=O)N2CCCC2)NC(=O)[C@H](C(C)C)N(C)C(=O)C2(CCCC2)NC(=O)[C@@H]2CCCN2C(=O)[C@H](CCc2ccc(C(F)(F)F)c(Cl)c2)NC(=O)CN(C)C(=O)[C@H](CC2CCCCC2)N(C)C(=O)CN(C)C(=O)CN(C)C1=O [Compound 508] ([NMeL]I[Sar][Sar][NMeCha][Sar][hPhe(3-Cl-4-CF3)]P[Ac5c][NMeV]D-Pyrrolidide; lactam N-11) | 12 |
| CC[C@H](C)[C@@H]1NC(=O)[C@H](C)N(C)C(=O)C[C@@H](C(=O)N2CCCC2)NC(=O)[C@H](CC(C)C)N(C)C(=O)[C@H](Cc2ccccc2)N(C)C(=O)[C@H](COCc2cncc(F)c2)NC(=O)[C@H](CCc2ccc(C(F)(F)F)cc2)NC(=O)CN(C)C(=O)[C@H](Cc2ccc(Cl)cc2)N(C)C(=O)CN(C)C(=O)CN(C)C1=O [Compound 513] ([NMeA]I[Sar][Sar][NMePhe(4-Cl)][Sar][hPhe(4-CF3)]S(X47)[NMeF][NMeL]D-Pyrrolidide; lactam N-11) | 46 |
| CC[C@H](C)[C@@H]1NC(=O)[C@H](CC(C)C)N(C)C(=O)C[C@@H](C(=O)N2CCCCC2)N(C)C(=O)[C@H](C2CCCCC2)N(C)C(=O)C2(CCCC2)NC(=O)[C@@H]2Cc3ccccc3N2C(=O)[C@H](CCc2ccc(C(F)(F)F)c(Cl)c2)NC(=O)CN(C)C(=O)[C@H](CC2CCCCC2)N(C)C(=O)CN(C)C(=O)CN(C)C1=O [Compound 514] ([NMeL]I[Sar][Sar][NMeCha][Sar][hPhe(3-Cl-4-CF3)][X22][Ac5c][NMeChg][NMeD]-Piperidide; lactam N-11) | 14 |
